In patent publication US9290536B2, “C4 monomethyl triterpenoid derivatives and methods of use thereof” (Reata Pharmaceuticals, Inc., priority 2011, dated 2016):

Each compound was assayed on IFNγ-induced NO production in RAW264.7 (assay: Suppression of IFNγ-induced NO production in RAW264.7 mouse macrophages (Griess reagent, normalized to WST-1 cell viability)). Settings: RAW264.7 cells, 2 h pre-treatment with drug (0-200 nM), then IFNγ for 24 h.
Format: cell-based
Description: Nitric Oxide Production and Cell Viability. […] On the next day, cells were pre-treated with DMSO or drug (0-200 nM dose range) for 2 hours, and then treated with recombinant mouse IFNγ (R&D Systems) for 24 hours. Nitric Oxide concentration in media was determined using the Griess reagent system (Promega). Cell viability was determined using WST-1 reagent (Roche). IC50 values were determined based on the suppression of IFNγ induced Nitric Oxide production normalized to cell viability.
COC(=O)C1=C[C@]2(C)C3=CC(=O)[C@@H]4[C@@H]5CC(C)(C)CC[C@]5(C(=O)OC)CC[C@@]4(C)[C@]3(C)CC[C@H]2[C@H](C)C1=O [TX63788] was tested, and the IC50 was 33.5 nM.
Work on COCc1nnc([C@]23CCC(C)(C)C[C@H]2[C@H]2C(=O)C=C4[C@@]5(C)C=C(C#N)C(=O)[C@@H](C)[C@@H]5CC[C@@]4(C)[C@]2(C)CC3)o1 [TX63790] yielded an IC50 of 1.1 nM.
CCOC(=O)[C@]12CCC(C)(C)C[C@H]1[C@H]1C(=O)C[C@@H]3[C@@]4(C)C=C(C#N)C(=O)[C@@H](C)[C@@H]4CC[C@@]3(C)[C@]1(C)CC2 [TX63842] showed an IC50 of 6.1 nM.
In the case of CCNC(=O)CC[C@]12CCC(C)(C)C[C@H]1[C@H]1C(=O)C=C3[C@@]4(C)C=C(C#N)C(=O)[C@@H](C)[C@@H]4CC[C@@]3(C)[C@]1(C)CC2 [TX63892], the IC50 is reported as 0.3 nM.
Compound C[C@@H]1C(=O)C(C#N)=C[C@]2(C)C3=CC(=O)[C@@H]4[C@@H]5CC(C)(C)CC[C@]5(NC(=O)C5CC5)CC[C@@]4(C)[C@]3(C)CC[C@@H]12 [TX63866] has an IC50 of 1.4 nM.
COC(=O)[C@]12CCC(C)(C)C[C@H]1[C@H]1C(=O)C=C3[C@@]4(C)C=CC(=O)[C@@H](C)[C@@H]4CC[C@@]3(C)[C@]1(C)CC2 [TX63832] was tested, and the IC50 was 149 nM.
COC[C@]12CCC(C)(C)C[C@H]1[C@H]1C(=O)C[C@@H]3[C@@]4(C)C=C(C#N)C(=O)[C@@H](C)[C@@H]4CC[C@@]3(C)[C@]1(C)CC2 [TX63858] gave an IC50 of 7.2 nM.
Work on COCCC[C@]12CCC(C)(C)C[C@H]1[C@H]1C(=O)C=C3[C@@]4(C)C=C(C#N)C(=O)[C@@H](C)[C@@H]4CC[C@@]3(C)[C@]1(C)CC2 [TX63919] yielded an IC50 of 1.4 nM.
Compound C[C@@H]1C(=O)C(C#N)=C[C@]2(C)C3=CC(=O)[C@@H]4[C@@H]5CC(C)(C)CC[C@]5(NC(=O)N(C)C)CC[C@@]4(C)[C@]3(C)CC[C@@H]12 [TX63875] has an IC50 of 1.3 nM.
Work on CCOC(=O)[C@]12CCC(C)(C)C[C@H]1[C@H]1C(=O)C=C3[C@@]4(C)C=C(C#N)C(=O)[C@@H](C)[C@@H]4CC[C@@]3(C)[C@]1(C)CC2 [TX63820] yielded an IC50 of 1.5 nM.
For C[C@@H]1C(=O)C(C#N)=C[C@]2(C)[C@H]3CC(=O)[C@@H]4[C@@H]5CC(C)(C)CC[C@]5(C(=O)O)CC[C@@]4(C)[C@]3(C)CC[C@@H]12 [TX63797], the IC50 was 21 nM.
C[C@@H]1C(=O)C(C#N)=C[C@]2(C)C3=CC(=O)[C@@H]4[C@@H]5CC(C)(C)CC[C@]5(C(=O)NC5COC5)CC[C@@]4(C)[C@]3(C)CC[C@@H]12 [TX63825] gave an IC50 of 2 nM.
With C[C@@H]1C(=O)C(C#N)=C[C@]2(C)C3=CC(=O)[C@@H]4[C@@H]5CC(C)(C)CC[C@]5(CCC(=O)NCC(F)(F)F)CC[C@@]4(C)[C@]3(C)CC[C@@H]12 [TX63887] the IC50 was 0.8 nM.
For COC(=O)CC[C@]12CCC(C)(C)C[C@H]1[C@H]1C(=O)C=C3[C@@]4(C)C=C(C#N)C(=O)[C@@H](C)[C@@H]4CC[C@@]3(C)[C@]1(C)CC2 [TX63867], the IC50 was 1.3 nM.
CNC(=O)CC[C@]12CCC(C)(C)C[C@H]1[C@H]1C(=O)C=C3[C@@]4(C)C=C(C#N)C(=O)[C@@H](C)[C@@H]4CC[C@@]3(C)[C@]1(C)CC2 [TX63886] was tested, and the IC50 was 0.3 nM.
In the case of COC(=O)[C@]12CCC(C)(C)C[C@H]1[C@H]1C(=O)C=C3[C@@]4(C)C=C(C(=O)O)C(=O)[C@@H](C)[C@@H]4CC[C@@]3(C)[C@]1(C)CC2 [TX63830], the IC50 is reported as 4.6 nM.
With C[C@@H]1C(=O)C(C#N)=C[C@]2(C)C3=CC(F)[C@]45OC(=O)[C@@]6(CCC(C)(C)C[C@H]64)CC[C@@]5(C)[C@]3(C)CC[C@@H]12 (stereo partly shown) [TX63907] the IC50 was 1.6 nM.
CC(=O)OC[C@]12CCC(C)(C)C[C@H]1[C@@]1(O)C(=O)C=C3[C@@]4(C)C=C(C#N)C(=O)[C@@H](C)[C@@H]4CC[C@@]3(C)[C@]1(C)CC2 [TX63909] showed an IC50 of 1.4 nM.
For COC(=O)[C@]12CCC(C)(C)C[C@H]1C1=CC[C@@H]3[C@@]4(C)C=C(C#N)C(=O)[C@@H](C)[C@@H]4CC[C@@]3(C)[C@]1(C)CC2 [TX63779], the IC50 was 44 nM.
Work on C[C@@H]1C(=O)C(C#N)=C[C@]2(C)C3=CC(=O)[C@@H]4[C@@H]5CC(C)(C)CC[C@]5(NS(=O)(=O)CC(F)(F)F)CC[C@@]4(C)[C@]3(C)CC[C@@H]12 [TX63818] yielded an IC50 of 0.8 nM.
With CNC(=O)N[C@]12CCC(C)(C)C[C@H]1[C@H]1C(=O)C=C3[C@@]4(C)C=C(C#N)C(=O)[C@@H](C)[C@@H]4CC[C@@]3(C)[C@]1(C)CC2 [TX63876] the IC50 was 7.3 nM.
Work on CCNC(=O)N[C@]12CCC(C)(C)C[C@H]1[C@H]1C(=O)C=C3[C@@]4(C)C=C(C#N)C(=O)[C@@H](C)[C@@H]4CC[C@@]3(C)[C@]1(C)CC2 [TX63826] yielded an IC50 of 4.4 nM.
With C[C@@H]1C(=O)C(C#N)=C[C@]2(C)C3=CC(=O)[C@@H]4[C@@H]5CC(C)(C)CC[C@]5(CCC(=O)N5CCC(F)(F)C5)CC[C@@]4(C)[C@]3(C)CC[C@@H]12 [TX63890] the IC50 was 0.8 nM.
C=C1C(O)=C(C#N)C[C@]2(C)C3=CC(=O)[C@@H]4[C@@H]5CC(C)(C)CC[C@]5(C(=O)OC)CC[C@@]4(C)[C@]3(C)CC[C@@H]12 [TX63910] showed an IC50 of 304 nM.
Compound C[C@@H]1C(=O)C(C#N)=C[C@]2(C)C3=CC(=O)[C@@H]4[C@@H]5CC(C)(C)CC[C@]5(O)CC[C@@]4(C)[C@]3(C)CC[C@@H]12 [TX63925] has an IC50 of 0.4 nM.
Work on CCNC(=O)[C@]12CCC(C)(C)C[C@H]1[C@H]1C(=O)C[C@@H]3[C@@]4(C)C=C(C#N)C(=O)[C@@H](C)[C@@H]4CC[C@@]3(C)[C@]1(C)CC2 [TX63680] yielded an IC50 of 7 nM.
Cc1nnc(CC[C@]23CCC(C)(C)C[C@H]2[C@H]2C(=O)C=C4[C@@]5(C)C=C(C#N)C(=O)[C@@H](C)[C@@H]5CC[C@@]4(C)[C@]2(C)CC3)o1 [TX63916] gave an IC50 of 0.4 nM.
C[C@@H]1C(=O)C(C#N)=C[C@]2(C)C3=CC(=O)[C@@H]4[C@@H]5CC(C)(C)CC[C@]5(C(N)=O)CC[C@@]4(C)[C@]3(C)CC[C@@H]12 [TX63557] showed an IC50 of 2.2 nM.
Work on C[C@@H]1C(=O)C(C#N)=C[C@]2(C)C3=CC(=O)[C@@H]4[C@@H]5CC(C)(C)CC[C@]5(CCC(=O)N5CCC5)CC[C@@]4(C)[C@]3(C)CC[C@@H]12 [TX63889] yielded an IC50 of 0.4 nM.
CC(=O)OC[C@]12CCC(C)(C)C[C@H]1[C@H]1C(=O)C=C3[C@@]4(C)C=C(C#N)C(=O)[C@@H](C)[C@@H]4CC[C@@]3(C)[C@]1(C)CC2 [TX63546] showed an IC50 of 1 nM.
For CCCCNC(=O)[C@]12CCC(C)(C)C[C@H]1[C@H]1C(=O)C=C3[C@@]4(C)C=C(C#N)C(=O)[C@@H](C)[C@@H]4CC[C@@]3(C)[C@]1(C)CC2 [TX63877], the IC50 was 1.3 nM.
With C[C@@H]1C(=O)C(C#N)=C[C@]2(C)C3=CC(=O)[C@@H]4[C@@H]5CC(C)(C)CC[C@]5(CCCO)CC[C@@]4(C)[C@]3(C)CC[C@@H]12 [TX63918] the IC50 was 0.5 nM.
C[C@@H]1C(=O)C(C#N)=C[C@]2(C)C3=CC(=O)[C@@H]4[C@@H]5CC(C)(C)CC[C@]5(C(=O)N(C)C)CC[C@@]4(C)[C@]3(C)CC[C@@H]12 [TX63878] showed an IC50 of 1.4 nM.
In the case of C[C@@H]1C(=O)C(C#N)=C[C@]2(C)[C@H]3CC(=O)[C@@H]4[C@@H]5CC(C)(C)CC[C@]5(COC(=O)C(F)(F)F)CC[C@@]4(C)[C@]3(C)CC[C@@H]12 [TX63841], the IC50 is reported as 4.5 nM.
For Cc1noc([C@]23CCC(C)(C)C[C@H]2[C@H]2C(=O)C=C4[C@@]5(C)C=C(C#N)C(=O)[C@@H](C)[C@@H]5CC[C@@]4(C)[C@]2(C)CC3)n1 [TX63787], the IC50 was 0.8 nM.
Work on C[C@@H]1C(=O)C(C#N)=C[C@]2(C)C3=CC(=O)[C@@H]4[C@@H]5CC(C)(C)CC[C@]5(C#N)CC[C@@]4(C)[C@]3(C)CC[C@@H]12 [TX63558] yielded an IC50 of 0.6 nM.
C[C@@H]1C(=O)C(C#N)=C[C@]2(C)C3=CC(=O)[C@@H]4[C@@H]5CC(C)(C)CC[C@]5(NC(=O)CC(F)(F)F)CC[C@@]4(C)[C@]3(C)CC[C@@H]12 [TX63799] was tested, and the IC50 was 1.8 nM.
C[C@@H]1C(=O)C(C#N)=C[C@]2(C)C3=CC(=O)[C@@H]4[C@@H]5CC(C)(C)CC[C@]5(N)CC[C@@]4(C)[C@]3(C)CC[C@@H]12 [TX63620] showed an IC50 of 1.2 nM.
C[C@@H]1C(=O)C(C#N)=C[C@]2(C)C3=CC(=O)[C@@H]4[C@@H]5CC(C)(C)CC[C@]5(F)CC[C@@]4(C)[C@]3(C)CC[C@@H]12 [TX63936] showed an IC50 of 1.1 nM.
With C[C@@H]1C(=O)C(C#N)=C[C@]2(C)C3=CC(=O)[C@@H]4[C@@H]5CC(C)(C)CC[C@]5(C(=O)N5CCCC5)CC[C@@]4(C)[C@]3(C)CC[C@@H]12 [TX63823] the IC50 was 0.8 nM.
CCOC(=O)N[C@]12CCC(C)(C)C[C@H]1[C@H]1C(=O)C=C3[C@@]4(C)C=C(C#N)C(=O)[C@@H](C)[C@@H]4CC[C@@]3(C)[C@]1(C)CC2 [TX63800] was tested, and the IC50 was 0.9 nM.
For C[C@@H]1C(=O)C(C#N)=C[C@]2(C)[C@H]3CC(=O)[C@@H]4[C@@H]5CC(C)(C)CC[C@]5(C(=O)NCC(F)(F)F)CC[C@@]4(C)[C@]3(C)CC[C@@H]12 [TX63807], the IC50 was 5.8 nM.
Work on C[C@@H]1C(=O)C(C#N)=C[C@]2(C)C3=CC(=O)[C@@H]4[C@@H]5CC(C)(C)CC[C@]5(C(=O)N5CCCCC5)CC[C@@]4(C)[C@]3(C)CC[C@@H]12 [TX63880] yielded an IC50 of 1.6 nM.
With COC(=O)[C@]12CCC(C)(C)C[C@H]1C1=CC[C@@H]3[C@@]4(C)CC(C#N)=C(OC(C)=O)[C@@H](C)[C@@H]4CC[C@@]3(C)[C@]1(C)CC2 [TX63795] the IC50 was greater than 200 nM.
With C[C@@H]1C(=O)C(C#N)=C[C@]2(C)[C@H]3CC(=O)[C@@H]4[C@@H]5CC(C)(C)CC[C@]5(CO)CC[C@@]4(C)[C@]3(C)CC[C@@H]12 [TX63839] the IC50 was 4 nM.
Work on CONC(=O)[C@]12CCC(C)(C)C[C@H]1[C@H]1C(=O)C=C3[C@@]4(C)C=C(C#N)C(=O)[C@@H](C)[C@@H]4CC[C@@]3(C)[C@]1(C)CC2 [TX63882] yielded an IC50 of 1.6 nM.
